Entries after “also recorded” stand apart in the source; their conditions may differ.

Assay [1] deals with CTL response. On the set-up: species or system HLA-A2.1/K^b-H-2^bxs transgenic mice. The following applies: mouse; for Immunogenicity In Vivo (IFA): No. CTL-Positive Cultures: sc; for immunogenicity of the peptide administered in IFA (in words): in vivo.
For assay [2] the following is noted: mouse, in vivo; cited from earlier work.
Assay [3] concerns mouse and human MHC class II haplotypes. The following applies: wide range of mouse and human MHC class II haplotypes; cited from earlier work.

As for `CC(C)C[C@H](NC(=O)[C@@H](NC(=O)[C@@H](N)CO)[C@@H](C)O)C(=O)N1CCC[C@H]1C(=O)N[C@@H](CCC(=O)O)C(=O)N[C@H](C(=O)N[C@H](C(=O)N[C@H](C(=O)N[C@H](C(=O)N[C@@H](CCCNC(=N)N)C(=O)N[C@@H](CCCNC(=N)N)C(=O)O)C(C)C)C(C)C)[C@@H](C)O)[C@@H](C)O` [HBV Core 141], in assay [1], the “Immunogenicity In Vivo (IFA): CTL Response (Geo. Mean ΔLU)” value (“Immunogenicity In Vivo … (Geo. Mean ΔLU)” for short) is recorded as 12.1 (2.6) ΔLU and the “Immunogenicity In Vivo (IFA): No. CTL-Positive Cultures” value was 6/6.
In the case of `CC(C)C[C@H](NC(=O)[C@H](CO)NC(=O)[C@H](CC(C)C)NC(=O)[C@@H](N)Cc1c[nH]c2ccccc12)C(=O)N[C@@H](CC(C)C)C(=O)N[C@H](C(=O)N1CCC[C@H]1C(=O)N[C@@H](Cc1ccccc1)C(=O)N[C@H](C(=O)O)C(C)C)C(C)C` [HBV Env 335], in assay [1], the “Immunogenicity In Vivo … (Geo. Mean ΔLU)” value is 5.3 (1.6) ΔLU, the “immunogenicity of the peptide administered in IFA (in words)” value was “immunogenic” and the “Immunogenicity In Vivo (IFA): No. CTL-Positive Cultures” value is recorded as 4/6.
For the compound `CSCC[C@H](NC(=O)[C@@H](N)Cc1ccc(O)cc1)C(=O)N[C@@H](CC(=O)O)C(=O)N[C@@H](CC(=O)O)C(=O)N[C@H](C(=O)N[C@H](C(=O)N[C@@H](CC(C)C)C(=O)NCC(=O)N[C@@H](C)C(=O)O)C(C)C)C(C)C` [HBV Pol 55 1-A], in assay [1], the “immunogenicity of the peptide administered in IFA (in words)” value is given as “weakly or nonimmunogenic; also recorded: essentially nonimmunogenic” and the “Immunogenicity In Vivo (IFA): No. CTL-Positive Cultures” value is listed as 0/6.
For `CC[C@H](C)[C@H](NC(=O)CNC(=O)[C@H](C)NC(=O)[C@H](CCCCN)NC(=O)[C@H](Cc1c[nH]c2ccccc12)NC(=O)[C@H](CC(C)C)NC(=O)[C@@H](NC(=O)[C@@H](N)Cc1c[nH]cn1)[C@@H](C)O)C(=O)N[C@@H](CC(C)C)C(=O)N[C@@H](Cc1ccc(O)cc1)C(=O)N[C@@H](CCCCN)C(=O)O` [HBV Pol 149], in assay [1], the “Immunogenicity In Vivo … (Geo. Mean ΔLU)” value is reported as 13.1 (1.2) ΔLU and the “Immunogenicity In Vivo (IFA): No. CTL-Positive Cultures” value is reported as 6/6.
Regarding `CC(C)[C@H](NC(=O)[C@@H](N)[C@@H](C)O)C(=O)N[C@@H](Cc1ccc(O)cc1)C(=O)N[C@@H](Cc1ccc(O)cc1)C(=O)NCC(=O)N[C@H](C(=O)N1CCC[C@H]1C(=O)N[C@H](C(=O)N[C@@H](Cc1c[nH]c2ccccc12)C(=O)N[C@@H](CCCCN)C(=O)O)C(C)C)C(C)C` [HIV Env 49], in assay [1], the “Immunogenicity In Vivo … (Geo. Mean ΔLU)” value was 13.4 (3.1) ΔLU and the “Immunogenicity In Vivo (IFA): No. CTL-Positive Cultures” value is given as 28/33.
With `CC[C@H](C)[C@H](N)C(=O)N[C@@H](CC(C)C)C(=O)N[C@@H](CCCCN)C(=O)N[C@@H](CCC(=O)O)C(=O)N1CCC[C@H]1C(=O)N[C@H](C(=O)N[C@@H](Cc1c[nH]cn1)C(=O)NCC(=O)N[C@H](C(=O)O)C(C)C)C(C)C` [HIV Pol 476], in assay [1], the “Immunogenicity In Vivo … (Geo. Mean ΔLU)” value is 15.2 (2.9) ΔLU and the “Immunogenicity In Vivo (IFA): No. CTL-Positive Cultures” value is 2/5.
Regarding AKFVAAWTLKAAA [PADRE], the “immunogenicity in H-2^b mice (in words)” value in assay [2] is recorded as “highly immunogenic”. Besides, in assay [3], the “MHC binding affinity (in words)” value was “high MHC binding affinity”.

The record behind these values is US6534482B1, “Expression vectors for stimulating an immune response and methods of using the same” (priority 1998, dated 2003).
